The experiment has as its target T1, EGF-R1 (Homo sapiens, UniProt P00533).
T1 construct: purified from human A431 cell membranes; purchased Sigma E3641; host or cells: human A431 cell membranes (endogenous protein)
As to the kind of experiment: Kinase selectivity assay EGF-R1. It is filed as biochemical. The method, then:
Assays to test compound inhibition of other kinases were preformed using methods that measure the amount of phosphorylation of a biotinylated peptide substrate. Biotinylated peptide substrates were selected from the literature as appropriate for the enzyme being evaluated. […] Assay conditions vary slightly for each protein kinase, for example, insulin receptor kinase requires 10 mM MnCl2 for activity and Calmodulin-dependent protein kinase requires calmodulin and 2 mM CaCl2. The reaction mixture was dispensed into the wells of a streptavidin coated Flashplate and 1 μL test compound in 100% DMSO was added to a 100 μL reaction volume resulting in a final concentration of 1% DMSO in the reaction. Enzyme was diluted in 50 mM Tris-HCl pH=8.0, 0.1% BSA and added to each well. The reaction was incubated for one hour at 30° C. in the presence of a test compound. After one hour the reaction mix was aspirated from the plate and the plate was washed with PBS containing 100 mM EDTA. The plate was read on a scintillation counter to determine ^33P-γ-ATP incorporated into the immobilized peptide substrate. Test compounds were assayed in duplicate at 8 concentrations (100 μM, 10 μM, 1 μM, 100 nM, 10 nM, 1 nM, 100 pM, 10 pM). A maximum and minimum signal for the assay was determined on each plate. […] Known inhibitor compounds appropriate for the kinase being assayed were also included on each plate. […]

In general, IC50 refers to the concentration that inhibits the measured activity by half. Higher therefore signals lower potency.

T1 sequence (P00533 25-1210): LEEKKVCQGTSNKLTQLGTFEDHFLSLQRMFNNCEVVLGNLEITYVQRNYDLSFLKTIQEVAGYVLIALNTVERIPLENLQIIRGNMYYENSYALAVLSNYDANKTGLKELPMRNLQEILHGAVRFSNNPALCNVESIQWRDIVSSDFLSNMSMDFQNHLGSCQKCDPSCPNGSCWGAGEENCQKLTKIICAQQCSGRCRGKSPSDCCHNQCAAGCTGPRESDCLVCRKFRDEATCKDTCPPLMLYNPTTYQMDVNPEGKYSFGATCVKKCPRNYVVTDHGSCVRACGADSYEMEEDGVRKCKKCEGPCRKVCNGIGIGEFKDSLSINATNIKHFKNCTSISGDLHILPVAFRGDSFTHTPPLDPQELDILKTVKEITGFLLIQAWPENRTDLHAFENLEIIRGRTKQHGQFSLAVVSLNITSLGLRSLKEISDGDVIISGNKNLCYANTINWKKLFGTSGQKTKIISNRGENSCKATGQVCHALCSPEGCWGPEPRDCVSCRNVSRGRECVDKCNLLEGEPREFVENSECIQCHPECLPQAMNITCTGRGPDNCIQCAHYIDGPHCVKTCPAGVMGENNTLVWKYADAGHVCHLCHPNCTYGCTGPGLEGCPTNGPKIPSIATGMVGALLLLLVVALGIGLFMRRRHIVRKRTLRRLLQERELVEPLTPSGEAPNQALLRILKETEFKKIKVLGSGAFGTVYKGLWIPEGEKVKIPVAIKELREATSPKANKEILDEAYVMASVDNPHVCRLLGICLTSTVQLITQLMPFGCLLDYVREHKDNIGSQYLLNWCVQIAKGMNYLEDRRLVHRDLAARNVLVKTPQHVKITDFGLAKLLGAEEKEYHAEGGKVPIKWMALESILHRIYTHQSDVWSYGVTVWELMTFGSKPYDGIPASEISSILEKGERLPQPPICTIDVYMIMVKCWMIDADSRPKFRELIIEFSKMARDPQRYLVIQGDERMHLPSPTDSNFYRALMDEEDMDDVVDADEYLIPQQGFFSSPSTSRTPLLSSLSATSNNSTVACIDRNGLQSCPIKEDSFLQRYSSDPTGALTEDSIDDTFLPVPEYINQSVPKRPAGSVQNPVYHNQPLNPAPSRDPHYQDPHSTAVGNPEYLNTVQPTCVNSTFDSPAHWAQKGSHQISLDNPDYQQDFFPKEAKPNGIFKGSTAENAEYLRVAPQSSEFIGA

`OCCCNc1cncc(-c2ncnc(Nc3cccc(Cl)c3)n2)c1` [Compound 1, 3-((5-(4-((3-chlorophenyl)amino)-1,3,5-triazin-2-yl)-3-pyridinyl)amino)-1-propanol] had an IC50 of over 100 µM.

(Values after patent publication US7205298B2, “Substituted triazine kinase inhibitors” (Janssen Pharmaceutica N.V., priority 2002, dated 2007).)
